Data taken from patent US20240409536A1, “COMPOUNDS AND METHODS FOR MODULATING SPLICING” (REMIX THERAPEUTICS INC., priority 2021, published 2024).

What was measured:
MYB mRNA = test: Gene panel canonical junction qPCR assay, MYB CJ mRNA decrease; assay type: cell-based, human; settings: Homo sapiens, canonical junction qPCR, read-out: MYB IC50 (decrease in CJ mRNA levels)
Method in brief: (§1)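 IC50 values describe loss of canonical-junction transcript, fitted by 4-parameter logistic to percent response derived from fixed ΔCt windows. Read-out: RT-qPCR on lysates of compound-treated K562 or A673 cells, probes overlapping the exon junction, ΔΔCt versus housekeeping gene and DMSO control.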

Target C mRNA = test: Gene panel canonical junction qPCR assay, Target C CJ mRNA decrease; assay type: cell-based; settings: Homo sapiens, canonical junction qPCR, read-out: Target C IC50 (decrease in CJ mRNA levels)
Method in brief: as §1

SMN2 mRNA = test: Gene panel canonical junction qPCR assay, SMN2 CJ mRNA decrease; assay type: cell-based, human; settings: Homo sapiens, canonical junction qPCR, read-out: SMN2 IC50 (decrease in CJ mRNA levels)
Method in brief: as §1

K562 cells = test: Cell Titer Glo 2.0 cell viability assay in K562 cells; settings: 72 hours
Method: Compounds described herein were screened for toxicity in K562 (human chronic myelogenous leukemia) and SH-SY5Y (human neuroblastoma) cells using a Cell Titer Glo 2.0 assay.
Cells were plated at 500 cells/well (K562 cells) in 45 μL of IMDM supplemented with 10% FBS in a 384-well opaque plate. Wells containing only medium were used as a blank control. Test compounds (e.g., compounds of Formula (I), (II), or (III)) were first serially diluted in DMSO then diluted 1:100 with IMDM+10% FBS. The final concentration of DMSO was 0.1% in each well. The cells were incubated for 72 hours at 37° C. and 5% CO2 before assaying with Cell Titer Glo 2.0 reagent.

HTT mRNA = test: Gene panel canonical junction qPCR assay, HTT CJ mRNA decrease; assay type: cell-based, human; settings: Homo sapiens, canonical junction qPCR, read-out: HTT IC50 (decrease in CJ mRNA levels)
Method in brief: as §1

HiBiT-tagged MYB protein = test: HiBiT protein abundance assay, MYB (K562 HiBiT knock-in cells); assay type: cell-based, human; settings: 24 hours
Method in brief: (§2)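 Luminescent readout of HiBiT-tagged endogenous protein after lysis, following 24 h compound exposure of knock-in K562 lines at 37 °C. Ten 3-fold concentrations from 10 μM final, DMSO ≤0.25%. Four-parameter logistic fit of normalized response gives concentration halving abundance (IC50).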

HiBiT-tagged HTT protein = test: HiBiT protein abundance assay, HTT (K562 HiBiT knock-in cells); assay type: cell-based, human; settings: 24 hours
Method in brief: as §2

Row | SMILES | IC50 (MYB mRNA) [nM] | IC50 (Target C mRNA) [nM] | IC50 (SMN2 mRNA) [nM] | Viability (K562 cells) | IC50 (HTT mRNA) [nM] | IC50 (HiBiT-tagged MYB protein) [nM] | IC50 (HiBiT-tagged HTT protein) [nM]
1 | CN[C@@H]1CCN(c2ccc(C(=O)Nc3cc(F)c4nc(C)cn4c3)c3nccnc23)C1 (single isomer, unassigned) [Compound 193, N-{8-fluoro-2-methylimidazo[1,2-a]pyridin-6-yl}-8-[3-(methylamino)pyrrolidin-1-yl]quinoxaline-5-carboxamide] | 100 to 1000 | > 10000 | < 100 | A (A represents <100 nM) | > 10000 | < 100 | 1000 to 10000
2 | CN[C@H]1CCN(c2ccc(C(=O)Nc3cc(F)c4nc(C)cn4c3)c3nccnc23)C1 (single isomer, unassigned) [Compound 194, N-{8-fluoro-2-methylimidazo[1,2-a]pyridin-6-yl}-8-[3-(methylamino)pyrrolidin-1-yl]quinoxaline-5-carboxamide] | < 100 | 1000 to 10000 | < 100 | A (A represents <100 nM) | 1000 to 10000 | < 100 | 1000 to 10000
3 | Cc1cn2nc(NC(=O)c3ccc(N4CCNCC4)c4ccnnc34)cc(C)c2n1 [Compound 100] | 100 to 1000 | 100 to 1000 | 100 to 1000 | B (B represents 100-1000 nM) | 100 to 1000 | 100 to 1000 | 100 to 1000
4 | Cc1cn2cc(NC(=O)c3ccc(N4CCNC5(CC5)C4)c4ccnnc34)cc(F)c2n1 [Compound 105] | 100 to 1000 | > 10000 | < 100 | B (B represents 100-1000 nM) | 1000 to 10000 | 100 to 1000 | 1000 to 10000
5 | Cc1cn2cc(NC(=O)c3ccc(N4C[C@H]5CC[C@@H](C4)N5)c4ccnnc34)cc(F)c2n1 [Compound 108] | 100 to 1000 | 1000 to 10000 | < 100 | – | 1000 to 10000 | 100 to 1000 | 1000 to 10000
6 | Cc1cn2nc(NC(=O)c3ccc(N4CCNCC4)c4ccnnc34)cc2c(C)n1 [Compound 123] | 1000 to 10000 | 1000 to 10000 | 1000 to 10000 | C (C represents 1000-9999 nM) | 1000 to 10000 | 1000 to 10000 | 1000 to 10000
7 | Cc1cn2cc(NC(=O)c3ccc(N4CCNCC4)c4ccnnc34)cc(C)c2n1 [Compound 125] | 100 to 1000 | 1000 to 10000 | < 100 | B (B represents 100-1000 nM) | 1000 to 10000 | 100 to 1000 | 1000 to 10000
8 | O=C(Nc1cn[nH]c1)c1ccc(N2CCNCC2)c2ccnnc12 [Compound 126] | > 10000 | > 10000 | > 10000 | – | > 10000 | > 10000 | > 10000
9 | Cc1cn2cc(NC(=O)c3ccc(N4CCN(C)CC4)c4ccnnc34)cc(F)c2n1 [Compound 127] | 100 to 1000 | 1000 to 10000 | < 100 | C (C represents 1000-9999 nM) | 1000 to 10000 | 100 to 1000 | 1000 to 10000
10 | Cc1cn2cc(NC(=O)c3ccc(N4CCNC(C)C4)c4ccnnc34)cc(F)c2n1 (stereo not shown) [Compound 128] | < 100 | 1000 to 10000 | < 100 | B (B represents 100-1000 nM) | 100 to 1000 | < 100 | 100 to 1000
11 | CCC1CN(c2ccc(C(=O)Nc3cc(F)c4nc(C)cn4c3)c3nnccc23)CCN1 (stereo not shown) [Compound 130] | < 100 | – | < 100 | B (B represents 100-1000 nM) | 1000 to 10000 | < 100 | 1000 to 10000
12 | Cc1cn2cc(NC(=O)c3ccc(N4CC5(CNC5)C4)c4ccnnc34)cc(F)c2n1 [Compound 131] | 100 to 1000 | 1000 to 10000 | < 100 | B (B represents 100-1000 nM) | 1000 to 10000 | < 100 | 100 to 1000
13 | Cc1cn2cc(NC(=O)c3ccc(N4CCC(N5CCCC5)C4)c4ccnnc34)cc(F)c2n1 (stereo not shown) [Compound 133] | 1000 to 10000 | 1000 to 10000 | < 100 | C (C represents 1000-9999 nM) | 1000 to 10000 | 100 to 1000 | 1000 to 10000
14 | Cc1cn2cc(NC(=O)c3ccc(N4CCC(N(C)C)C4)c4ccnnc34)cc(F)c2n1 (stereo not shown) [Compound 134] | 100 to 1000 | 1000 to 10000 | < 100 | B (B represents 100-1000 nM) | 1000 to 10000 | < 100 | 1000 to 10000
15 | Cc1cn2cc(NC(=O)c3ccc(N4CCC(N(C)C)CC4)c4ccnnc34)cc(F)c2n1 [Compound 137] | < 100 | 100 to 1000 | < 100 | A (A represents <100 nM) | 100 to 1000 | < 100 | 100 to 1000
16 | Cc1cn2cc(NC(=O)c3ccc(N4CCC(NC(C)(C)C)CC4)c4ccnnc34)cc(F)c2n1 [Compound 138] | 100 to 1000 | 1000 to 10000 | < 100 | C (C represents 1000-9999 nM) | 1000 to 10000 | 100 to 1000 | 1000 to 10000
17 | Cc1cn2cc(NC(=O)c3ccc(C4CCN(C)CC4)c4ccnnc34)cc(F)c2n1 [Compound 140] | 100 to 1000 | > 10000 | < 100 | B (B represents 100-1000 nM) | 1000 to 10000 | < 100 | 100 to 1000
18 | CCN1CCC(c2ccc(C(=O)Nc3cc(F)c4nc(C)cn4c3)c3nnccc23)CC1 [Compound 141] | 100 to 1000 | 1000 to 10000 | < 100 | C (C represents 1000-9999 nM) | 1000 to 10000 | < 100 | 1000 to 10000
19 | Cc1cn2cc(NC(=O)c3ccc(N4CCN[C@H](C)C4)c4ccnnc34)cc(F)c2n1 [Compound 146] | < 100 | > 10000 | < 100 | A (A represents <100 nM) | 100 to 1000 | < 100 | 100 to 1000
20 | Cc1cn2cc(NC(=O)c3ccc(N(C)[C@@H]4C[C@H]5CC[C@@H](C4)N5)c4ccnnc34)cc(F)c2n1 [Compound 156] | 1000 to 10000 | > 10000 | 100 to 1000 | – | > 10000 | 1000 to 10000 | > 10000
21 | Cc1cn2cc(NC(=O)c3ccc(N4C[C@@H](C)N[C@@H](C)C4)c4nccnc34)cc(F)c2n1 [Compound 186, 8-(3,5-dimethylpiperazin-1-yl)-N-{8-fluoro-2-methylimidazo[1,2-a]pyridin-6-yl}quinoxaline-5-carboxamide] | < 100 | > 10000 | < 100 | – | 1000 to 10000 | < 100 | 1000 to 10000
22 | CNC1CCN(c2ccc(C(=O)Nc3cc(F)c4nc(C)cn4c3)c3nc(OC)cnc23)C1 (stereo not shown) [Compound 202, N-{8-fluoro-2-methylimidazo[1,2-a]pyridin-6-yl}-3-methoxy-8-[3-(methylamino)pyrrolidin-1-yl]quinoxaline-5-carboxamide; bis(trifluoroacetic acid)] | – | > 10000 | < 100 | A (A represents <100 nM) | > 10000 | < 100 | 1000 to 10000
